# US9163044B2, “Carbon monoxide releasing molecules and uses thereof” (Alfama, Inc., priority 2011, dated 2015)
# “Also recorded” adds a separate entry of the source.
# Legend:
# [1] = test system: APAP-induced acute liver failure (ALF) model; experiment: APAP-induced acute liver failure (ALF) model, sublethal (300 mg/kg APAP i.p.); assay type: in vivo, C57Bl/6 male mice; conditions: for therapeutic activity in acetaminophen induced ALF (in words): mouse, in vivo; for % ALT increase relative to increase with APAP alone Experiment 1 / % ALT increase relative to increase with APAP alone Experiment 2 / Measured ALT values (mean ± S.D.) Experiment 1 / Measured ALT values (mean ± S.D.) Experiment 2: alone or plus NAC (300 mg/kg), at 1 h and 3 h post APAP; for Measured ALT values (mean ± S.D.) Experiment 1 / Measured ALT values (mean ± S.D.) Experiment 2: serum 22 h
# Description: Compound 3b was studied in a sublethal model for acetaminophen (APAP)-induced Liver Injury.
# ALF was induced in C57Bl/6 male mice with a single dose of acetaminophen (300 mg/kg) by i.p. injection. […] Serum alanine aminotransferase (ALT) was measured 22 h after APAP injection (n=5 mice for each group). […] ALF was induced in C57Bl/6 male mice with a single dose of acetaminophen (300 mg/kg) by i.p. injection. […] Twenty-two hours after APAP injection serum ALT was measured (indicated in FIG. 11A), centrilobular sections of mouse livers were cut and stained with hematoxylin and eosin, and the percentage of liver necrosis was determined. The data indicates a dose-dependent reduction of ALT levels of 9% to 83% relative to APAP control, and a dose-dependent reduction of necrosis of 0% to 56% relative to APAP control.
# ALF was induced in C57Bl/6 male mice with a single dose of acetaminophen (300 mg/kg) by i.p. injection. […] Alanine aminotransferase (ALT) was measured 22 h after APAP injection (n=4 or n=5 mice for each group).
# ALF was induced in C57Bl/6 male mice with a single dose of acetaminophen (300 mg/kg) by i.p. injection. […] Twenty-two hours after APAP injection, serum ALT was measured (indicated in FIGS. 12A-12B), centrilobular sections of mouse livers were cut and stained with hematoxylin and eosin, and the percentage of liver necrosis was determined.
# ALF was induced in C57Bl/6 male mice with a single dose of acetaminophen (300 mg/kg) by i.p. injection.
# FIG. 14 depicts the effect of late treatment with Compound 3b on serum ALT in ALF model. ALF was induced in C57Bl/6 male mice with a single dose of acetaminophen (300 mg/kg) by i.p. injection. At sixteen hours after APAP injection, the animals were treated with different doses of Compound 3b (0.3, 3, 30 or 60 mg/kg). Alanine aminotransferase (ALT) was measured 22 h after APAP injection (n=4 or n=5 mice for each group).
# ALF was induced in C57Bl/6 male mice with a single dose of acetaminophen (300 mg/kg) by i.p. injection. […] Experiments 1 and 2 represent two independent experiments. Alanine aminotransferase (ALT) was measured 22 h after APAP injection (n=4 or n=5 mice for each group). The ALT levels and the respective percentage of ALT increase, relative to the increase observed in mice injected with APAP alone, are presented in Table 7.
# ALF was induced in C57Bl/6 male mice with a single dose of acetaminophen (300 mg/kg) by i.p. injection. […] Twenty-two hours after APAP injection, serum ALT was measured and centrilobular sections of mouse livers were cut and stained with hematoxylin and eosin.
# [2] = CO release kinetics in 50 mM HEPES buffer (pH 7.4), GC-RCP; assay type: physicochemical; conditions: for CO equivalents released in 24 hours in the dark / CO equivalents released in 24 hours under light: 50 mM HEPES buffer
# Description: The quantization of the released CO was performed according to Vreman et al. Anal. Biochem. (2005) 341: 280-289 using a Gas Chromatograph with a Reducing Compound Photometer detector (GC-RCP; Peak Laboratories, Mountain View, Calif.), which allows quantifying CO in gas mixtures at concentrations as low as 1-2 parts per billion (ppb).
# General Method for the Determination of CO Release in HEPES Buffer
# The CO release kinetics of all compounds was evaluated in 50 mM HEPES buffer (pH 7.4) in a sealed 8-mL vial. […] Since light activation can release CO from molybdenum carbonyl compounds, CO release was determined with solutions in closed, clear glass vials kept under light (on the laboratory bench under regular laboratory lighting) or in the dark (wrapped in aluminum foil and kept inside a cardboard box). Gas samples (from 10 μL up to 500 μL) of the vial headspace (7 ml volume) were removed with a gas-tight syringe at 15, 30, 60, 120, 240, 360 min, and 24 hours after start of the incubation. The gas samples were injected into sealed vials containing air (8 mL) for dilution. The entire gas volume of the vials (8 mL) was transferred with carrier gas to the GC-RCP and analyzed for CO. The GC-RCP had been calibrated with gas containing a known amount of CO. The calibration curve had been established starting with gas from a cylinder which contained synthetic air with 30 ppm CO (Linde, Cat. No. 14960013) and preparing dilutions in 8-mL vials as described above.
# The CO equivalents released at each time point from each compound were determined by the following equation: (CO released (pmol)×number of CO ligands in the molecule)/([CO] in the compound (pmol)).
Compound,"reduction of necrosis relative to APAP control (in words) ([1]; 60 mg/kg, 1 h after APAP)",therapeutic activity in acetaminophen induced ALF (in words) [1],CO equivalents released in 24 hours in the dark [2] [CO equivalents],CO equivalents released in 24 hours under light ([2]; under light) [CO equivalents],"time to release 0.5 CO equivalents under light ([2]; 50 mM HEPES pH 7.4, 50 μM, under light)","effect of a single dose administered 16 hours after APAP injury (in words) ([1]; 0.3, 3, 30 or 60 mg/kg at 16 h, ALT 22 h after APAP)","therapeutic effect, 2 doses given at 1 h and 3 h after APAP (in words) ([1]; 2×60 and 2×120 mg/kg, NAC 2×300 mg/kg, evaluated 22 h post APAP)",% ALT increase relative to increase with APAP alone Experiment 1 ([1]; 3b 2 × 60 mg/kg) [%],% ALT increase relative to increase with APAP alone Experiment 2 ([1]; 3b 2 × 60 mg/kg) [%],Measured ALT values (mean ± S.D.) Experiment 1 ([1]; 3b 2 × 60 mg/kg) [U/L],Measured ALT values (mean ± S.D.) Experiment 2 ([1]; 3b 2 × 60 mg/kg) [U/L],% ALT increase relative to increase with APAP alone Experiment 1 ([1]; 3b 2 × 120 mg/kg) [%],% ALT increase relative to increase with APAP alone Experiment 2 ([1]; 3b 2 × 120 mg/kg) [%],Measured ALT values (mean ± S.D.) Experiment 1 ([1]; 3b 2 × 120 mg/kg) [U/L],Measured ALT values (mean ± S.D.) Experiment 2 ([1]; 3b 2 × 120 mg/kg) [U/L],"liver histology: necrosis (in words) ([1]; Compound 3b 2×100 or 2×300 mg/kg, NAC 2×300 mg/kg, at one and three hours after APAP, 22 h)","effect on serum ALT when given late after APAP injury (in words) ([1]; five hours and seven hours after APAP, NAC 150 mg/kg, Compound 3b 120 mg/kg)"
tricarbonyl[tris(isocyanoacetic acid)]Mo(0) [Compound 1b],does not reduce necrosis,lack of activity,1.4,1.6,–,–,–,–,–,–,–,–,–,–,–,–,–
"CC([N+]#[C][Mo-6]([C]#[O+])([C]#[O+])([C]#[O+])([C]#[N+]C(C)C(=O)O)[C]#[N+]C(C)C(=O)O)C(=O)O (centres unmarked) [Compound 2b, tricarbonyl[tris(2-isocyanopropionic acid)]Mo(0)]",–,still retains therapeutic activity although lower than that of Compound 3b,1.2,1.5,about 90 minutes,–,–,–,–,–,–,–,–,–,–,–,–
"[C-]#[N+]C(C)(C)C(=O)O.[C-]#[N+]C(C)(C)C(=O)O.[C-]#[N+]C(C)(C)C(=O)O.[C-]#[O+].[C-]#[O+].[C-]#[O+].[Mo] [Compound 3b, tricarbonyl[tris(2-isocyano-2-methyl-propionic acid)]Mo(0)]",–,strong therapeutic activity,1.3,1.8,–,dose-dependent therapeutic effect,highly therapeutic; also recorded: as effective as NAC,57.2 ± 14.5,45.0 ± 8.1,5180 ± 1312,5500 ± 987,49.5 ± 7.0,35.7 ± 7.6,4480 ± 630,4360 ± 926,very little if any necrosis,therapeutic
